These results are taken from patent publication US20260001881A1, “COMPOUNDS AND METHODS FOR MODULATION OF G-PROTEIN-COUPLED RECEPTORS” (PRIMETIME LIFE SCIENCES, LLC, priority 2018, published 2026).

The nature of data set [1]: Stability of prodrugs in mouse plasma after 2 hours of treatment. To be noted: 37° C. The data set is classed as in vitro ADME.
Another data set has as its target hA2AAR (Homo sapiens (Human), UniProt P29274). As to the kind of experiment: Binding affinities for Adenosine receptors (hA2AAR). Particulars: HEK 293 cells stably expressing hA2AAR.
Another data set has as its target hA1AR (Homo sapiens (Human), UniProt P30542). As to the kind of experiment: Binding affinities for Adenosine receptors (hA1AR). Particulars: CHO cells stably expressing recombinant hA1AR.
For another data set, the target named is hA3AR (Homo sapiens (Human), UniProt P0DMS8). Nature of the data set: Binding affinities for Adenosine receptors (hA3AR). Particulars: CHO cells stably expressing recombinant hA3AR.
hA3AR, sequence (P0DMS8 whole entry): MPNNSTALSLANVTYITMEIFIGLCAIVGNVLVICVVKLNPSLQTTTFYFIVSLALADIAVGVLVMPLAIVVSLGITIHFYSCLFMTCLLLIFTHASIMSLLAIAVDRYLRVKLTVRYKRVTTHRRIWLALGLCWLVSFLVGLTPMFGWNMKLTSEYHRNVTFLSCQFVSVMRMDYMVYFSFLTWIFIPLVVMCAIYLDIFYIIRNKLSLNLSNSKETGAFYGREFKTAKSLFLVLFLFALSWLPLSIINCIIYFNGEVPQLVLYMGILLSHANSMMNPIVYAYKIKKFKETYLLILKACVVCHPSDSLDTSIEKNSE

hA1AR, sequence (P30542 whole entry): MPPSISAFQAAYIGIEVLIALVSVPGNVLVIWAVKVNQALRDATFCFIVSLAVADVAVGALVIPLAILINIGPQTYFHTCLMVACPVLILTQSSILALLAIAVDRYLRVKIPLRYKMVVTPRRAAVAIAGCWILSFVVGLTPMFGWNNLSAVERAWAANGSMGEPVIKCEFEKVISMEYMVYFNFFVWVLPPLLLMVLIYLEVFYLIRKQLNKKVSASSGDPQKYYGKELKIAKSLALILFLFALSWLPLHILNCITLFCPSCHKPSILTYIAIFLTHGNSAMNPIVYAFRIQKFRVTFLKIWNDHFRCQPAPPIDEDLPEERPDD
hA2AAR, sequence (P29274 whole entry): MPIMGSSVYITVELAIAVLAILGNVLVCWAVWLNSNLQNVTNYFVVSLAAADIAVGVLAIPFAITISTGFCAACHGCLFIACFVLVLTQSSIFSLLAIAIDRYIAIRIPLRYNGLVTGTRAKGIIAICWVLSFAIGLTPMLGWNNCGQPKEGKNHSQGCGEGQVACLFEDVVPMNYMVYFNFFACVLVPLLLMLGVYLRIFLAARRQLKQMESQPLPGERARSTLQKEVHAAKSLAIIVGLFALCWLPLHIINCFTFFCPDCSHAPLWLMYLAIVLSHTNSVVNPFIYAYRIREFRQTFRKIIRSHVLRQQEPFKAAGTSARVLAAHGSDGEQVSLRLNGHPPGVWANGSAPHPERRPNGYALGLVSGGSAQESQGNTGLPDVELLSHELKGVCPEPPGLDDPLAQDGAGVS

With `CC(C)[C@H](N)C(=O)OC1C(OC(=O)[C@@H](N)C(C)C)[C@@H]2C[C@@H]2C1n1cnc2c(NC(C3CC3)C3CC3)nc(Cl)nc21.Cl.Cl` (stereo partly drawn) [Compound T1.1, (1R,5S)-4-(2-chloro-6-((dicyclopropylmethyl)amino)-9H-purin-9-yl)bicyclo[3.1.0]hexane-2,3-diyl (2S,2'S)-bis(2-amino-3-methylbutanoate), dihydrochloride salt], in data set [1], the “Parent prodrug remained after 2 hours” value is recorded as 11%.
For `CC(C)[C@H](N)C(=O)N(c1nc(Cl)nc2c1ncn2[C@H]1[C@H](O)[C@H](O)[C@@H]2C[C@@H]21)C(C1CC1)C1CC1` [Compound T3.1, (S)-2-amino-N-(2-chloro-9-((1S,2R,3S,4R,5R)-3,4-dihydroxybicyclo[3.1.0]hexan-2-yl)-9H-purin-6-yl)-N-(dicyclopropylmethyl)-3-methylbutanamide], the “Parent prodrug remained after 2 hours” value in data set [1] is recorded as 14%.
Take `CC(C)[C@H](N)C(=O)OC[C@@]12C[C@@H]1[C@@H](n1cnc3c(NC(C4CC4)C4CC4)nc(Cl)nc31)[C@H](O)[C@@H]2O` [Compound T4.1, ((1R,2R,3S,4R,5S)-4-(2-chloro-6-((dicyclopropylmethyl)amino)-9H-purin-9-yl)-2,3-dihydroxybicyclo[3.1.0]hexan-1-yl)methyl L-valinate]: the “Parent prodrug remained after 2 hours” value in data set [1] turned out to be 21%.
The same measure, in the same setting: the result for `CNC(=O)[C@@]12C[C@@H]1[C@@H](n1cnc3c(NCc4cccc(Cl)c4)nc(C#Cc4ccc(F)c(F)c4)nc31)[C@H](OC(=O)[C@@H](N)C(C)C)[C@@H]2OC(=O)[C@@H](N)C(C)C` [Compound T8.1, (1S,2R,3S,4R,5S)-4-(6-((3-chlorobenzyl)amino)-2-((3,4-difluorophenyl)ethynyl)-9H-purin-9-yl)-1-(methylcarbamoyl)bicyclo[3.1.0]hexane-2,3-diyl (2S,2'S)-bis(2-amino-3-methylbutanoate)] reads 9%; that for `CNC(=O)[C@@]12C[C@@H]1[C@@H](n1cnc3c(NCc4cccc(Cl)c4)nc(C#Cc4ccc(F)c(F)c4)nc31)[C@@H]1OC3(CCN(C)CC3)O[C@@H]12` [Compound T9.8, (3aR,3bS,4aS,5R,5aS)-5-(6-((3-chlorobenzyl)amino)-2-((3,4-difluorophenyl)ethynyl)-9H-purin-9-yl)-N,1′-dimethyltetrahydrospiro[cyclopropa[3,4]cyclopenta[1,2-d][1,3]dioxole-2,4′-piperidine]-3b(3aH)-carboxamide], 17%.
In general, Ki refers to the dissociation constant of the complex between target and ligand, obtained from inhibition or displacement. With `C[C@@H]1CC(n2cnc3c(NC(C4CC4)C4CC4)nc(Cl)nc32)C(O)C1O` (some centres unmarked) [Compound T13.1], the Ki at hA2AAR is more than 10 µM; on hA1AR, less than 1 µM; at hA3AR, 1 to 10 µM.
As for `C[C@@H]1CC(n2cnc3c(NC4C5(CC5)C45CC5)nc(Cl)nc32)C(O)C1O` (some centres unmarked) [Compound T13.2], the Ki on hA2AAR is 1 to 10 µM; on hA1AR, less than 1 µM; on hA3AR, more than 10 µM.
For `C[C@@H]1CC(n2cnc3c(NC(C4CCC4)C4CCC4)nc(Cl)nc32)C(O)C1O` (some centres unmarked) [Compound T13.3], in that order: more than 10 µM, less than 1 µM and more than 10 µM.
For `C[C@@H]1CC(n2cnc3c(NC(C4CC4)C4CC4)ncnc32)C(O)C1O` (some centres unmarked) [Compound T13.4], in that order: 1 to 10 µM, 1 to 10 µM and more than 10 µM.
For `C[C@@H]1CC(n2cnc3c(NC4C5(CC5)C45CC5)ncnc32)C(O)C1O` (some centres unmarked) [Compound T13.5], in that order: more than 10 µM, more than 10 µM and more than 10 µM.
`C[C@@H]1CC(n2cnc3c(NC(C4CCC4)C4CCC4)ncnc32)C(O)C1O` (some centres unmarked) [Compound T13.6]: the Ki at hA2AAR was 1 to 10 µM; on hA1AR, 1 to 10 µM; on hA3AR, more than 10 µM.
For the compound `OC[C@H]1O[C@@H](n2cnc3c(NC(C4CC4)C4CC4)nc(Cl)nc32)[C@@H](O)C1O` (some centres unmarked) [Compound T14.1], the Ki is 1 to 10 µM on hA2AAR, 1 to 10 µM on hA1AR and more than 10 µM at hA3AR.
`OC[C@H]1O[C@@H](n2cnc3c(NC4C5(CC5)C45CC5)nc(Cl)nc32)[C@@H](O)C1O` (some centres unmarked) [Compound T14.2]: the values for the inhibition constant (Ki) on hA2AAR, at hA1AR and at hA3AR were 1 to 10 µM, more than 10 µM and more than 10 µM, respectively.
Regarding `OC[C@H]1O[C@@H](n2cnc3c(NC(C4CCC4)C4CCC4)nc(Cl)nc32)[C@@H](O)C1O` (some centres unmarked) [Compound T14.3], the Ki at hA2AAR is 1 to 10 µM; on hA1AR, more than 10 µM; at hA3AR it was less than 1 µM.
With `OC[C@H]1O[C@@H](n2cnc3c(NC(C4CC4)C4CC4)ncnc32)[C@@H](O)C1O` (some centres unmarked) [Compound T14.4], the Ki at hA2AAR is 1 to 10 µM; at hA1AR, more than 10 µM; at hA3AR it was 1 to 10 µM.
Take `OC[C@H]1O[C@@H](n2cnc3c(NC4C5(CC5)C45CC5)ncnc32)[C@@H](O)C1O` (some centres unmarked) [Compound T14.5]: the figures for the Ki on hA2AAR, at hA1AR and on hA3AR were more than 10 µM, 1 to 10 µM and more than 10 µM, respectively.
Regarding `OC[C@H]1O[C@@H](n2cnc3c(NC(C4CCC4)C4CCC4)ncnc32)[C@@H](O)C1O` (some centres unmarked) [Compound T14.6], the Ki on hA2AAR, on hA1AR and on hA3AR was 1 to 10 µM each time.
